Measured values taken from publication PMC8443589, “Modelling human liver fibrosis in the context of non-alcoholic steatohepatitis using a microphysiological system” (Communications Biology, 2021).
Several values for one entry are separate records, joined by “and”; a condition that tells them apart may be missing. Identical values can stand only once. Values belong to the compound of their own block, whether it stands above or below them.

Columns and labels:
[1] = test system: human NASH patients; settings: cited from earlier work
[2] = Protein binding in HEP-Fat cell culture media by rapid equilibrium dialysis; assay type: in vitro ADME; settings: for fraction unbound: HEP-Fat cell culture media, HEP-FAT media, rapid-equilibrium dialysis
Method: Despite many on-going clinical trials, there is still no approved treatment for NASH, but emerging data provide confidence that NASH is a pharmacologically responsive disease. […] First, we set out to determine an optimal dosing strategy for each of the treatments based on an assessment of their physicochemical properties and pharmacokinetic behaviour within the MPS device (Table 1). Non-specific binding to the MPS device was determined after a 72 h incubation with each candidate drug at 1 μM (Table 1). Both candidate drugs were calculated to have less than 0.1% loss as a consequence of non-specific binding to the MPS device (Table 1). […] Because the hepatocytes within the MPS device are metabolically competent, we evaluated the half-life for each candidate drug in NASH microtissues.
To determine the metabolic turnover of obeticholic acid and elafibranor in the MPS platform, both compounds were incubated with liver microtissues for 48 h starting at 1 µM and media samples taken at regular intervals (AdooQ Bioscience, UK). The presence of each compound in the cell culture medium was quantified by liquid chromatography-tandem mass spectrometry (LC-MS/MS). Samples were separated using a Waters Acquity UPLC system with an ACE Excel C18-AR column and analysed on a Waters TQ-S Micro mass spectrometer against quantitative standard curves. Both compounds were also assessed for protein binding in HEP-Fat media using rapid equilibrium dialysis (RED) and quantified using the same LC-MS/MS methodology.

[3] = test system: liver MPS NASH model + TGFβ (PHH, KC and HSC co-cultures, high fat); assay: Fibrosis-associated soluble biomarkers (TIMP-1, pro-collagen 1) in liver MPS NASH model with TGFβ dosed with OCA or ELF (Fig 6b); assay type: cell-based, human; settings: for Pro-collagen 1 / TIMP-1: NASH + TGF, individual replicates
Text: (§1) The systems biology approach identified TGFβ to be a key driver in creating a more advanced NASH phenotype in the MPS model, with enhanced fibrotic markers and reduced liver function. […] Therefore, we explored how effective pharmacological intervention would be for NASH microtissues with high NPC numbers supplemented with TGFβ and exposed them to varying concentrations of OCA and ELF QD as previously described (Supp. Fig. 6a). […] OCA had the greatest effect on IL-1Rα whereas ELF had the greatest effect on MCP-1 reflecting the fact that while both candidate drugs have anti-inflammatory properties, but their mechanisms of action are different. […] Finally, we used our quantitative fibrosis imaging assay to assess the effect of each candidate drug on collagen-1 deposition and α-SMA expression (Fig. 6c). […] Both candidate drugs caused a significant reduction in collagen-1 deposition and α-SMA expression, with the highest concentrations of OCA and ELF causing an 80% reduction in α-SMA expression and a 75% reduction in collagen-1 deposition (Fig. 6c).
(§2) Fig. 6 Using enhanced liver MPS NASH model with TGFβ, Obeticholic acid and Elafibranor modulate disease phenotype to a greater extent than in standard NASH model. PHH, KC and HSC co-cultures were cultured in the MPS platform under high-fat conditions and dosed with varying concentrations of Obeticholic acid (OCA) and Elafibranor (ELF) QD or vehicle control for 10 days, following an initial 4-day pre-culture phase. Throughout the compound dosing period TGFβ was also dosed onto all microtissues (NASH only vehicle control samples were also included in the study for comparison, which were not treated with TGFβ or dosed with any compound). a The secreted cytokine profile from treated liver microtissues was compared to determine the effects of each compound on the inflammatory profile of the liver with samples analysed at day 8 and 14 of the culture. Data were normalised by Z-transformation to allow comparison of all analytes (white = undetected). b The expression of fibrosis-associated biomarkers was analysed on day 14 media samples and compared to NASH + TGFβ control samples. c Liver microtissues were stained for collagen-type I, α-SMA, nuclei (DAPI), phalloidin (green) and imaged by confocal microscopy. Representative images are shown and scale bars 200 µm. Staining of microtissues was quantified by measuring total fluorescence intensity throughout individual microtissues, each data point represents an average of all microtissues per MPS culture (min 8, max 20). All datapoints shown with error bars highlighting means ± SD, all data from a minimum of three independent cultures: all comparisons were made to NASH + TGFβ control samples.
Soluble biomarkers in cell culture medium from the MPS were analysed by enzyme-linked immunosorbent assay (ELISA); IL-6 was measured by Human IL-6 DuoSet ELISA (R&D Systems); MCP-1 was measured by Human CCL2/MCP-1 DuoSet ELISA (R&D Systems); pro-collagen 1 was measured by Human Pro-Collagen I α1 DuoSet (R&D Systems); TIMP-1 was measured by Human TIMP-1 Quantikine ELISA Kit (R&D Systems); Fibronectin was measured by Human Fibronectin DuoSet ELISA (R&D Systems); YKL-40 was measured by Human Chitinase 3-like 1 Quantikine ELISA Kit (R&D Systems); Albumin secretion was measured by Human Albumin AssayMax™ ELISA kit (Assay Pro, St. Charles, MO). For all assays, the manufacturer’s protocol was followed.
Liver microtissues were cultured for 4 days in HEP-FAT medium, before dosing with obeticholic acid or elafibranor. Both compounds were dissolved in DMSO, diluted in cell culture medium (final DMSO concentration ≤1%) and added to microtissues during a full medium change every two days and in addition on the intervening days compounds were spiked into the media to increase drug concentration back to desired concentrations. Cultures were maintained in the presence of the compound, for a total of 10 days in the presence or absence of TGFβ.

[4] = test system: liver MPS NASH model + TGFβ (PHH, KC and HSC co-cultures, high fat); assay: Quantitative confocal imaging of collagen-1 and α-SMA in liver MPS NASH model with TGFβ (Fig 6c); assay type: cell-based, human; settings: for Collagen 1 - fluroscence intensity / aSMA - fluroscence intensity: NASH + TGF, individual replicates; for reduction in collagen-1 deposition / reduction in α-SMA expression: NASH + TGFβ, highest concentrations
Text: as §1, §2
To visualise fibrosis proteins in the liver microtissues, scaffolds were fixed for 15 min in 4% paraformaldehyde following culture in the MPS platform. They were permeabilized with 0.1% Triton-X and blocked with 2% BSA before staining overnight at 4 °C with antibodies against alpha SMA (Abcam, UK - ab7817) and collagen 1 (Rockland, USA—600 401 103 0.5). Scaffolds were then stained with fluorescently conjugated secondary antibodies (Alexa-Fluor 555 goat anti-rabbit #A21429; Alexa-Fluor 647 donkey anti-rabbit #A31573; Alexa-Fluor 555 goat anti-mouse #A21424; Alexa-Fluor 647 goat anti-mouse #A21235 (Thermofisher, UK) along with Phalloidin 488 (Thermofisher, UK) and Hoechst 33342 (Invitrogen) for 1.5 h at room temperature. Scaffolds were washed three times with PBS and mounted onto glass microscope slides with anti-fade mounting medium. Confocal fluorescent images of the stained scaffolds were captured using a Cell Voyager 7000 (CV700, Yokogawa Inc.) automated confocal microscope. Image acquisition was controlled using the SearchFirst functionality of the Wako Software suite (Fujifilm Wako Automation). A workflow was designed to automatically locate and acquire images of each scaffold in a consistent and unbiased manner (Supp. Fig. 1). […]

fraction unbound [2]: 0.02
Protein binding within the fat culture medium [2]: highly protein-bound
soluble biomarkers TIMP-1 and pro-collagen 1 ([3]; NASH + TGFβ, day 14 media): reduced by ELF treatment
Compound: CSc1ccc(C(=O)/C=C/c2cc(C)c(OC(C)(C)C(=O)O)c(C)c2)cc1 [Elafibranor]
NASH resolution, post-hoc analysis of the GOLDEN-505 phase 2b trial ([1]; 120 mg): significant effect on NASH resolution
NASH resolution and fibrosis improvement in phase 3 trial ([1]; 16-month interim analysis): did not reach statistical significance
Pro-collagen 1 ([3]; 1.3 uM, listed as ELF): 415.15 pg/day and 440.97 pg/day and 422.37 pg/day
TIMP-1 ([3]; 1.3 uM, listed as ELF): 239.08 pg/day and 252.67 pg/day and 220.1 pg/day
Pro-collagen 1 ([3]; 13 uM, listed as ELF): 371.17 pg/day and 444.41 pg/day and 309.29 pg/day
TIMP-1 ([3]; 13 uM, listed as ELF): 191.73 pg/day and 205.16 pg/day and 212.17 pg/day
Pro-collagen 1 ([3]; 65 uM, listed as ELF): 282.32 pg/day and 426.16 pg/day and 245.63 pg/day
TIMP-1 ([3]; 65 uM, listed as ELF): 278.05 pg/day and 246.83 pg/day and 169.84 pg/day
Collagen 1 - fluroscence intensity ([4]; 1.3 uM, listed as ELF): 1733.28 and 2118.75 and 2931.26
aSMA - fluroscence intensity ([4]; 1.3 uM, listed as ELF): 730.875 and 499.771 and 815.833
Collagen 1 - fluroscence intensity ([4]; 13 uM, listed as ELF): 1948.99 and 2325.43
aSMA - fluroscence intensity ([4]; 13 uM, listed as ELF): 408.818 and 783.286
Collagen 1 - fluroscence intensity ([4]; 65 uM, listed as ELF): 815.347 and 1263.35 and 1286.58
aSMA - fluroscence intensity ([4]; 65 uM, listed as ELF): 106.491 and 171.359 and 165.195
reduction in collagen-1 deposition [4]: 75%
reduction in α-SMA expression [4]: 80%

fraction unbound [2]: < 0.01
Protein binding within the fat culture medium [2]: highly protein-bound
Compound: CC[C@H]1[C@@H](O)[C@@H]2[C@H](CC[C@]3(C)[C@@H]([C@H](C)CCC(=O)O)CC[C@@H]23)[C@@]2(C)CC[C@@H](O)C[C@@H]12 [Obeticholic acid]
NASH resolution in phase 3 trial ([1]; 18-month interim analysis): did not reach statistical significance
liver fibrosis in phase 3 trial ([1]; 18-month interim analysis): improved liver fibrosis
Pro-collagen 1 ([3]; 0.25 uM, listed as OCA): 444.17 pg/day and 318.9 pg/day and 467.42 pg/day
TIMP-1 ([3]; 0.25 uM, listed as OCA): 197.88 pg/day and 287.39 pg/day and 303.89 pg/day
Pro-collagen 1 ([3]; 5 uM, listed as OCA): 576.99 pg/day and 525.8 pg/day and 497.39 pg/day
TIMP-1 ([3]; 5 uM, listed as OCA): 311.28 pg/day and 328.19 pg/day and 368.24 pg/day
Pro-collagen 1 ([3]; 12.5 uM, listed as OCA): 448.27 pg/day and 351.02 pg/day and 505.76 pg/day
TIMP-1 ([3]; 12.5 uM, listed as OCA): 365.14 pg/day and 327.97 pg/day and 326.64 pg/day
Collagen 1 - fluroscence intensity ([4]; 0.25 uM, listed as OCA): 1951.11 and 3372.52 and 2271.93
aSMA - fluroscence intensity ([4]; 0.25 uM, listed as OCA): 697.585 and 1188.53 and 484.974
Collagen 1 - fluroscence intensity ([4]; 5 uM, listed as OCA): 1987.74 and 1316.74 and 1611.55
aSMA - fluroscence intensity ([4]; 5 uM, listed as OCA): 480.346 and 350.765 and 416.589
Collagen 1 - fluroscence intensity ([4]; 12.5 uM, listed as OCA): 1674.28 and 412.802 and 1126.69
aSMA - fluroscence intensity ([4]; 12.5 uM, listed as OCA): 287.458 and 39.7737 and 104.277
reduction in collagen-1 deposition [4]: 75%
reduction in α-SMA expression [4]: 80%

Compound: TGFβ: recombinant TGF beta 1 protein (Abcam), 1 ng/ml cue
collagen-1 and α-SMA signal, fat and TGFβ compared to just fat alone ([4]; NASH microtissues, high NPC): significant increase
